# Experimental data: patent publication US20120058989A1, “ANTIBACTERIAL FLUOROQUINOLONE ANALOGS” (Achaogen, Inc., priority 2008, published 2012)
# Experiments:
# Assay in all cases: MIC, CLSI broth microdilution
# Assay type in all cases: cell-based
# [1] = test system: A. baumannii AABA1065 (Fluoroquinolone-susceptible)
# Outline: (§1)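 CLSI M7-A7 broth microdilution in Mueller Hinton Broth using two-fold compound serial dilutions. Inoculum was prepared from the previous day's agar colonies at a final 5×10^5 CFU/mL. Plates were incubated at 35° C for 20 hours in ambient air.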
# [2] = test system: S. pneumoniae ASPN1018 (Fluoroquinolone-resistant); conditions: Table 3
# Outline: as §1
# [3] = test system: S. aureus ASAU001 (Fluoroquinolone-susceptible, ATCC29213)
# Outline: as §1
# [4] = test system: P. aeruginosa APAE054 (Fluoroquinolone-resistant)
# Outline: as §1
# [5] = test system: S. pneumoniae ASPN1027 (Fluoroquinolone-resistant)
# Outline: as §1
# [6] = test system: A. baumannii AABA1020 (Fluoroquinolone-resistant); conditions: Table 3
# Outline: as §1
# [7] = test system: A. baumannii AABA1009 (Fluoroquinolone-resistant); conditions: Table 2
# Outline: as §1
# [8] = test system: S. aureus ASAU1033 (Fluoroquinolone-resistant); conditions: Table 3
# Outline: as §1
# [9] = test system: P. aeruginosa APAE002 (Fluoroquinolone susceptible); conditions: Table 3
# Outline: as §1
# [10] = test system: S. pneumoniae ASPN002 (Fluoroquinolone-susceptible, ATCC10813); conditions: Table 3
# Outline: as §1
# [11] = test system: P. aeruginosa APAE001 (Fluoroquinolone-susceptible, ATCC27853)
# Outline: as §1
# [12] = test system: E. coli AECO066 (Fluoroquinolone-resistant)
# Outline: as §1
# [13] = test system: S. aureus ASAU002 (Fluoroquinolone-susceptible, ATCC33591 (MRSA)); conditions: Table 3
# Outline: as §1
# [14] = test system: S. aureus ASAU1031 (Fluoroquinolone-resistant)
# Outline: as §1
# [15] = test system: E. coli AECO086 (Fluoroquinolone-resistant); conditions: Table 3
# Outline: as §1
# [16] = test system: E. coli AECO001 (Fluoroquinolone susceptible, ATCC25922)
# Outline: as §1
# [17] = test system: S. pneumoniae ASPN001 (Fluoroquinolone-susceptible, ATCC49619)
# Outline: as §1
# [18] = test system: E. coli AECO002 (Fluoroquinolone susceptible); conditions: Table 3
# Outline: as §1
compound,measurement,setting,value
"NC1CC2CCCc3c(c(F)cc4c(=O)c(C(=O)O)cn(C5CC5)c34)N2C1.O=C(O)C(F)(F)F [7C/29, (7aS,9S)-9-Amino-4-cyclopropyl-12-fluoro-1-oxo-4,5,6,7,7a,8,9,10-octahydro-1H-pyrrolo quinoline-2-carboxylic acid trifluoroacetate]",MIC AABA 1065,[1]; Table 2,B (MIC's of greater than 1.0 μg/mL to 8.0 μg/mL = B)
same,MIC AABA 1065,[1]; Table 3,C (MIC's of 2.0 μg/mL to 8.0 μg/mL = C)
same,MIC ASPN1018,[2],D (MIC's of greater than 8.0 μg/mL = D)
same,MIC ASAU 001,[3]; Table 2,B (MIC's of greater than 1.0 μg/mL to 8.0 μg/mL = B)
same,MIC ASAU 001,[3]; Table 3,C (MIC's of 2.0 μg/mL to 8.0 μg/mL = C)
same,MIC APAE 054,[4]; Table 2,C (MIC's of greater than 8.0 μg/mL = C)
same,MIC APAE 054,[4]; Table 3,D (MIC's of greater than 8.0 μg/mL = D)
same,MIC ASPN 1027,[5]; Table 2,C (MIC's of greater than 8.0 μg/mL = C)
same,MIC ASPN 1027,[5]; Table 3,D (MIC's of greater than 8.0 μg/mL = D)
same,MIC AABA1020,[6],D (MIC's of greater than 8.0 μg/mL = D)
same,MIC AABA 1009,[7],C (MIC's of greater than 8.0 μg/mL = C)
same,MIC ASAU1033,[8],D (MIC's of greater than 8.0 μg/mL = D)
same,MIC APAE002,[9],D (MIC's of greater than 8.0 μg/mL = D)
same,MIC ASPN002,[10],D (MIC's of greater than 8.0 μg/mL = D)
same,MIC APAE 001,[11]; Table 2,C (MIC's of greater than 8.0 μg/mL = C)
same,MIC APAE 001,[11]; Table 3,D (MIC's of greater than 8.0 μg/mL = D)
same,MIC AECO 066,[12]; Table 2,C (MIC's of greater than 8.0 μg/mL = C)
same,MIC AECO 066,[12]; Table 3,D (MIC's of greater than 8.0 μg/mL = D)
same,MIC ASAU002,[13],C (MIC's of 2.0 μg/mL to 8.0 μg/mL = C)
same,MIC ASAU 1031,[14]; Table 2,C (MIC's of greater than 8.0 μg/mL = C)
same,MIC ASAU 1031,[14]; Table 3,D (MIC's of greater than 8.0 μg/mL = D)
same,MIC AECO086,[15],D (MIC's of greater than 8.0 μg/mL = D)
same,MIC AECO 001,"[16]; Table 2, 35° C., 20 hours",B (MIC's of greater than 1.0 μg/mL to 8.0 μg/mL = B)
same,MIC AECO 001,[16]; Table 3,C (MIC's of 2.0 μg/mL to 8.0 μg/mL = C)
same,MIC ASPN 001,[17]; Table 2,C (MIC's of greater than 8.0 μg/mL = C)
same,MIC ASPN 001,[17]; Table 3,D (MIC's of greater than 8.0 μg/mL = D)
same,MIC AECO002,[18],C (MIC's of 2.0 μg/mL to 8.0 μg/mL = C)
